Molecules are shown by their SMILES.

We go through 24 compounds from patent publication US12281057B2 (VERTEX PHARMACEUTICALS INCORPORATED, priority 2017, dated 2025).

One experiment deals with truncated form of human NaV 1.8 with full channel activity (Homo sapiens, UniProt Q9Y5Y9). Kind of experiment: E-VIPR Assay Method A for detecting and measuring Nav inhibition (HEK cells, membrane potential FRET dyes, electrical stimulation). Format: cell-based. To be noted: HEK cells expressing human NaV 1.8, HS (human serum) in compound loading buffer, 11 point dose response, top dose 3 μM, Table 20, read-out: Nav 1.8 MedChem Optical Assay EVIPR Assay Method A HS IC50. An excerpt: E-VIPR Assay Method A for Detecting and Measuring Nav Inhibition Properties Sodium ion channels are voltage-dependent proteins that can be activated by inducing membrane voltage changes by applying electric fields. The electrical stimulation instrument and methods of use, referred to as E-VIPR, are described in International Publication No. WO 2002/008748 A3 and C.-J. Huang et al. Characterization of voltage-gated sodium channel blockers by electrical stimulation and fluorescence detection of membrane potential, 24 Nature Biotech. 439-46 (2006), both of which are incorporated by reference in their entirety. The instrument comprises a microtiter plate handler, an optical system for exciting the coumarin dye while simultaneously recording the coumarin and oxonol emissions, a waveform generator, a current- or voltage-controlled amplifier, and parallel electrode pairs that are inserted into assay plate wells. Under integrated computer control, this instrument passes user-programmed electrical stimulus protocols to cells within the wells of the microtiter plate. […] Sigma #F4135), 1% NEAA (Non-Essential Amino Acids, Life Tech #11140), 1% HEPES (Life Tech #15630), 1% Pen-Strep (Penicillin-Streptomycin; […] Cells were expanded in vented cap flasks, with 95% humidity and 5% CO2. Reagents and Stock Solutions: • 100 mg/mL Pluronic F-127 (Sigma #P2443), in dry DMSO • Compound Plates: […] 5% KIR 2.1 Bacmam virus (produced in-house), prepared as described in Section 3.3 of J. A. […] The solution was made by adding 10% Pluronic F127 stock equal to combined volumes of CC2-DMPE and DiSBAC6(3). The order of preparation was first mix Pluronic and CC2-DMPE, then add DiSBAC6(3), then while vortexing add Bath1/β-Cyclodextrin. […] Assay Protocol: […] Final DMSO concentration for all wells in the assay was 0.625% (0.75% DMSO was supplemented to the Compound Loading Buffer for a final DMSO concentration of 0.625%). […] 3) Cell plates were prepared. On the day of the assay, the media was aspirated, and the cells were washed three times with 80 μL of Bath-1 buffer, maintaining 25 μL residual volume in each well. 4) 25 μL per well of Hexyl Dye Solution was dispensed into the cell plates. The cells were incubated for 20 minutes at room temp or ambient conditions in darkness. 5) 80 μL per well of Compound Loading Buffer was dispensed into compound plates. 6) The cell plates were washed three times with 80 μL per well of Bath-1 Buffer, leaving 25 µL of residual volume. Then 25 uL per well from compound plate was transferred to each cell plate. The mixture was incubated for 30 minutes at room temp/ambient conditions. 7) The plate was read on E-VIPR using the current-controlled amplifier to deliver stimulation wave pulses using the following protocol: 1.25 Amps, 2.5 ms pulse width biphasic waveform, 10 Hz for 10 seconds at a scan rate of 200 Hz. A pre-stimulus recording was performed for 0.5 seconds to obtain the un-stimulated intensities baseline. The stimulatory waveform was followed by 0.5 seconds of post-stimulation recording to examine the relaxation to the resting state. Data Analysis: Data were analyzed and reported as normalized ratios of emission intensities measured in the 460 nm and 580 nm channels. The response as a function of time was reported as the ratios obtained using the following formula: […] The data were further reduced by calculating the initial (Ri) and final (Rf) ratios. These were the average ratio values during part or all of the pre-stimulation period and during sample points during the stimulation period. The fluorescence ratio (Rf/Ri) was then calculated and reported as a function of time. Control responses were obtained by performing assays in the presence of the positive control, and in the absence of pharmacological agents (DMSO vehicle negative control). Responses to the negative (N) and positive (P) controls were calculated as above. The compound antagonist % activity A was then defined as: [formula] where X is the ratio response of the test compound. […]
Sequence of truncated form of human NaV 1.8 with full channel activity (Q9Y5Y9 126-1722 limits assumed): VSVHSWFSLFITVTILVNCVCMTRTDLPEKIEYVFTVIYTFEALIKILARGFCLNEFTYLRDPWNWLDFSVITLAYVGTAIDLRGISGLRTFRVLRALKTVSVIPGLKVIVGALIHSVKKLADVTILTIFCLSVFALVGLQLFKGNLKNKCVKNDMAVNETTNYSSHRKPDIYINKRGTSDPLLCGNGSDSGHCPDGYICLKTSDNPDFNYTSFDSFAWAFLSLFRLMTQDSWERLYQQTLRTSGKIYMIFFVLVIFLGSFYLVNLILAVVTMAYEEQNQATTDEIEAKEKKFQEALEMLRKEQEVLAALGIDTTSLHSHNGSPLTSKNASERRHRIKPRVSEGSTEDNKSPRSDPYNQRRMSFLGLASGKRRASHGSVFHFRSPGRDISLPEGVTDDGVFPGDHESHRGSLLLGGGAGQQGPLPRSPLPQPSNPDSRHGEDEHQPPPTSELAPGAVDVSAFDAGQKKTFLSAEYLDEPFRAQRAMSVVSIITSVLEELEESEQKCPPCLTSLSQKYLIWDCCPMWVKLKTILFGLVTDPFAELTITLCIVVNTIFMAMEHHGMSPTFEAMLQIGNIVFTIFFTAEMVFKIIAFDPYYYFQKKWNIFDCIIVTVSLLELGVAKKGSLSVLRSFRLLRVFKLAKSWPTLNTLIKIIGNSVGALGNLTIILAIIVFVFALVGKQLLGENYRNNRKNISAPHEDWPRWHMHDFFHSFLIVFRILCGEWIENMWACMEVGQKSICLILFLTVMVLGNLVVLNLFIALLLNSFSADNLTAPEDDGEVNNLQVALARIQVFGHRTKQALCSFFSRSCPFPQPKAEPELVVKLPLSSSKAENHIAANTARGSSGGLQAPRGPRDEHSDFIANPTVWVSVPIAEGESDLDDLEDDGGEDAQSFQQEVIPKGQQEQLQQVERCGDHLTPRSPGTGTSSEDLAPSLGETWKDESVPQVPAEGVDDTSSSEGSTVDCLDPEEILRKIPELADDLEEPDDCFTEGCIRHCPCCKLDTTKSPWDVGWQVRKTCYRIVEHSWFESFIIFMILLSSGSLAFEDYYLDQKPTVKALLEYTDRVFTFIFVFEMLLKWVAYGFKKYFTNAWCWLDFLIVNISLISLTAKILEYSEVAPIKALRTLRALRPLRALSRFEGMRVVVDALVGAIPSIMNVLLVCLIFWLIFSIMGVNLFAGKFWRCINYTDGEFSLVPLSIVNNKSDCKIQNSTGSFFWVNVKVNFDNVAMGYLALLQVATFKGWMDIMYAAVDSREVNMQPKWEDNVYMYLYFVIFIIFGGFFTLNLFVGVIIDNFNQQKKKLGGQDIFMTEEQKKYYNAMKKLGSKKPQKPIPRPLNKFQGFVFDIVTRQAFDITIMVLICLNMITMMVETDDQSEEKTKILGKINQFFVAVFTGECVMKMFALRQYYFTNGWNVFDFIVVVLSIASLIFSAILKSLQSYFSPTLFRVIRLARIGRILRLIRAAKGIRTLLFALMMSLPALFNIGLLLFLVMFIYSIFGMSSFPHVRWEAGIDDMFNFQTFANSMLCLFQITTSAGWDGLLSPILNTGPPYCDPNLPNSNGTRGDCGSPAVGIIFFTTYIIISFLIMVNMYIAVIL
As for `NC(=O)c1cc(NC(=O)c2c(Oc3ccc(OC(F)(F)F)cc3F)ccc(C(F)(F)F)c2F)ccc1F` [Compound 21, N-(3-carbamoyl-4-fluoro-phenyl)-2-fluoro-6-[2-fluoro-4-(trifluoromethoxy)phenoxy]-3-(trifluoromethyl)benzamide], the half-maximal inhibitory concentration (IC50) – broadly, the point on the concentration scale where inhibition reaches its midpoint – worked out at 10 nM. On to `NC(=O)c1cc(NC(=O)c2c(Oc3ccc(OC(F)(F)F)cc3OC(F)F)ccc(C(F)(F)F)c2F)ccn1` [Compound 13, 4-[[6-[2-(difluoromethoxy)-4-(trifluoromethoxy)phenoxy]-2-fluoro-3-(trifluoromethyl)benzoyl]amino]pyridine-2-carboxamide], for which the IC50 was determined as 4 nM.

Consider `NC(=O)c1cc(NC(=O)c2c(Oc3ccc(OC(F)(F)F)c(F)c3)ccc(C(F)(F)F)c2F)ccc1F` [Compound 18, N-(3-carbamoyl-4-fluoro-phenyl)-2-fluoro-6-[3-fluoro-4-(trifluoromethoxy)phenoxy]-3-(trifluoromethyl)benzamide], for which the 50% inhibitory concentration (IC50) came out at 9 nM.

Still in this experiment, the particulars now being: HEK cells expressing human NaV 1.8, HS (human serum) in compound loading buffer, 11 point dose response, top dose 3 μM, Table 20A, read-out: Nav 1.8 MedChem Optical Assay EVIPR Assay Method A HS IC50.
`NC(=O)c1cc(NC(=O)c2c(Oc3ccc(OC(F)(F)F)cc3)ccc(C3CC3)c2F)ccn1` [Compound 72, 4-[[3-Cyclopropyl-2-fluoro-6-[4-(trifluoromethoxy)phenoxy]benzoyl]amino]pyridine-2-carboxamide]: the IC50 came to 175 nM. The same measure, in the same setting: with `COc1c(C(F)(F)F)ncc(Oc2ccc(OC(F)(F)F)cc2)c1C(=O)Nc1cc(C(N)=O)ncc1C` [Compound 131, N-(2-Carbamoyl-5-methyl-4-pyridyl)-3-methoxy-5-[4-(trifluoromethoxy)phenoxy]-2-(trifluoromethyl)pyridine-4-carboxamide] the figure was 170 nM. With `NC(=O)c1cc(NC(=O)c2c(Oc3ccc(OC(F)(F)F)c(F)c3)ccc(C(F)(F)F)c2F)ccn1` [Compound 57, 4-[[2-fluoro-6-[3-fluoro-4-(trifluoromethoxy)phenoxy]-3-(trifluoromethyl)benzoyl]amino]pyridine-2-carboxamide], the IC50 is 17 nM.

With `[2H]C([2H])([2H])Oc1cc(OC(F)(F)F)ccc1Oc1ccc(C(F)(F)F)c(F)c1C(=O)Nc1ccc(C(N)=O)cc1` [Compound 127, N-(4-carbamoylphenyl)-2-fluoro-6-[2-(trideuteriomethoxy)-4-(trifluoromethoxy)phenoxy]-3-(trifluoromethyl)benzamide], the IC50 amounted to 4 nM.

For the compound `COc1cc(OC(F)(F)F)ccc1Oc1cc([C@H]2C[C@@H]2C)ncc1C(=O)Nc1ccnc(C(N)=O)c1` (single isomer, unassigned) [Compound 111], the IC50 is 200 nM. The same measure, in the same setting: with `COc1cc(OC(F)(F)F)ccc1Oc1ccc(C(F)(F)F)c(OC)c1C(=O)Nc1ccc(F)c(C(N)=O)c1` [Compound 92, N-(3-Carbamoyl-4-fluoro-phenyl)-2-methoxy-6-[2-methoxy-4-(trifluoromethoxy)phenoxy]-3-(trifluoromethyl)benzamide] the figure was 2 nM. Same read-out and setting: with `COc1nc(Cl)ccc1Oc1ccc(C(F)(F)F)c(F)c1C(=O)Nc1ccc(F)c(C(N)=O)c1` [Compound 54, N-(3-Carbamoyl-4-fluoro-phenyl)-6-[(6-chloro-2-methoxy-3-pyridyl)oxy]-2-fluoro-3-(trifluoromethyl)benzamide] the figure was 7 nM; with `COc1cc(OC(F)(F)F)ccc1Oc1cccc(C(F)(F)F)c1C(=O)Nc1ccc(F)c(C(N)=O)c1` [Compound 40, N-(3-Carbamoyl-4-fluoro-phenyl)-2-[2-methoxy-4-(trifluoromethoxy)phenoxy]-6-(trifluoromethyl)benzamide], 34 nM; with `COc1cc(OC(F)(F)F)ccc1Oc1cncc(F)c1C(=O)Nc1ccc(F)c(C(N)=O)c1` [Compound 117, N-(3-Carbamoyl-4-fluoro-phenyl)-3-fluoro-5-[2-methoxy-4-(trifluoromethoxy)phenoxy]pyridine-4-carboxamide], 180 nM.

`NC(=O)c1cc(NC(=O)c2c(Oc3ccc(OC(F)(F)F)cc3)ccc(F)c2F)ccc1F` [Compound 63, N-(3-Carbamoyl-4-fluoro-phenyl)-2,3-difluoro-6-[4-(trifluoromethoxy)phenoxy]benzamide]: the IC50 was determined as 140 nM.

`NC(=O)c1cc(NC(=O)c2ccc(OC(F)(F)F)cc2Oc2ccc(OC(F)(F)F)cc2)ccn1` [Compound 149, 4-[[4-(Trifluoromethoxy)-2-[4-(trifluoromethoxy)phenoxy]benzoyl]amino]pyridine-2-carboxamide]: the IC50 is 1500 nM. On the same count and under the same terms, with `NC(=O)c1cc(NC(=O)c2cc(F)c(C(F)(F)F)cc2Oc2ccc(OC(F)(F)F)cc2)ccn1` [Compound 76, 4-[[5-Fluoro-2-[4-(trifluoromethoxy)phenoxy]-4-(trifluoromethyl)benzoyl]amino]pyridine-2-carboxamide] the figure was 350 nM. Take `COc1cc(OC(F)(F)F)ccc1Oc1ccc(F)c(Cl)c1C(=O)Nc1ccc(C(N)=O)nc1` [Compound 186, 5-[[2-Chloro-3-fluoro-6-[2-methoxy-4-(trifluoromethoxy)phenoxy]benzoyl]amino]pyridine-2-carboxamide]: the IC50 turned out to be 190 nM. The same measure, in the same setting: under `COc1cc(OC(F)(F)F)ccc1Oc1ccc(C(F)(F)F)c(F)c1C(=O)Nc1ccc(C(N)=O)cc1F` [Compound 82, N-(4-carbamoyl-2-fluoro-phenyl)-2-fluoro-6-[2-methoxy-4-(trifluoromethoxy)phenoxy]-3-(trifluoromethyl)benzamide] stands 92 nM; under `COc1cc(OC(F)(F)F)ccc1Oc1cc([C@@H]2C[C@H]2C)ncc1C(=O)Nc1ccc(F)c(C(N)=O)c1` (single isomer, unassigned) [Compound 114], 17 nM. `NC(=O)c1cc(NC(=O)c2c(Oc3ccc(OC(F)(F)F)cc3O)ccc(C(F)(F)F)c2F)ccc1F` [Compound 142, N-(3-Carbamoyl-4-fluoro-phenyl)-2-fluoro-6-[2-hydroxy-4-(trifluoromethoxy)phenoxy]-3-(trifluoromethyl)benzamide]: the IC50 amounted to 310 nM.

With `COc1cc(OC(F)(F)F)ccc1Oc1ccc(C(F)(F)F)c(F)c1C(=O)Nc1ccnc(C(N)=O)n1` [Compound 207, 4-[[2-Fluoro-6-[2-methoxy-4-(trifluoromethoxy)phenoxy]-3-(trifluoromethyl)benzoyl]amino]pyrimidine-2-carboxamide], the IC50 was determined as 27 nM. For the compound `COc1cc(OC(F)(F)F)ccc1Oc1ccc(C(F)(F)F)c(F)c1C(=O)Nc1ccc(C(N)=O)nc1` [Compound 193, 5-[[2-fluoro-6-[2-methoxy-4-(trifluoromethoxy)phenoxy]-3-(trifluoromethyl)benzoyl]amino]pyridine-2-carboxamide], the IC50 turned out to be 16 nM. Consider `COc1cc(F)ccc1-c1cc(C(F)(F)F)ccc1C(=O)Nc1ccc(F)c(C(N)=O)c1` [Compound 162, N-(3-carbamoyl-4-fluoro-phenyl)-2-(4-fluoro-2-methoxy-phenyl)-4-(trifluoromethyl)benzamide], for which the IC50 amounted to 170 nM. Consider `[2H]C([2H])([2H])Oc1c(Oc2cc(Cl)c(C(F)F)c(OC)c2C(=O)Nc2ccnc(C(N)=O)c2)ccc(OC(F)(F)F)c1F` [Compound 233], for which the IC50 came out at 4 nM. As for `NC(=O)c1cc(NC(=O)c2c(Oc3ccc(OC(F)(F)F)cc3)ccc(OC(F)(F)F)c2F)ccn1` [Compound 243, 4-[[2-fluoro-3-(trifluoromethoxy)-6-[4-(trifluoromethoxy)phenoxy]benzoyl]amino]pyridine-2-carboxamide], the IC50 amounted to 24 nM.
